Experiments:
[1] = Hair switch shape and frizz control (volume) after straightening and exposure to high humidity; settings: After 1 hour at high humidity (30 C./80% RH); switches soaked 30 minutes in 1% aqueous solution, dried, straightened with 5 passes of irons; volume vs water control
Protocol: (§1) Dark brown European wavy hair switches of length 25 cm and weight 2 gms, were treated as follows:
Control: After initial washing, soaked for 30 minutes in water
Comparative Example A: After initial washing, soaked for 30 minutes in aqueous solution of 1% glycine
Example 1: soaked for 30 minutes in aqueous solution of 1% N-formyl glycine
(§2) At the end of the soaking period, the switches were left to dry at 20° C. and 50% RH. When dried, the switches were straightened with 5 passes of FHI irons (FHI Brands, 29003 Avenue Sherman Valencia, Calif. 91355 USA). The switches were then placed in a humidity chamber ˜30 C/80% RH for 1 hour and images were captured and analyzed.

[2] = Hair switch volume reduction benefit after subsequent washing; settings: switches from Example 1 subsequently washed, images captured; compared to control
Protocol: as §1, §2
The switches from the above example were subsequently washed and the images were captured. […] The corresponding benefits for glycine was only −10%.

Row | SMILES | % shape and frizz control benefit against control [1] [%] | benefit over control (volume reduction) after washing [2] [%]
1 | NCC(=O)O [Comparative Example A, glycine] | −6 | −10
2 | O=CNCC(=O)O [Example 1, N-formyl glycine] | 30 | 32

From patent US11376203B2, “Hair treatment composition” (Conopco, Inc., priority 2017, dated 2022)
